Results from US20120053053A1, “PYRIMIDINE DERIVATIVES AND THEIR USE AS HERBICIDES” (SYNGENTA CROP PROTECTION, LLC, priority 2009, published 2012).

How the values were obtained:
Assay type in all cases: in vivo
Solanum nigrum (SOLNI) [1] = assay: Post-emergence biological efficacy (percentage damage); settings: Solanum nigrum, 312 h, dose 1,000 g/ha, evaluated after 13 days, 100=total damage, 0=no damage
Procedure, shortened: (§1)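 Pot-grown plants are cultivated 8 days under glasshouse conditions (24/16 °C, 14 h light, 65% humidity), sprayed at a dose of 250 or 1000 g/ha, kept under the same conditions with twice-daily watering, and rated for damage after 13 days.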

[2] = system: Alopecurus myosuroides (ALOMY); assay: as above; settings: Alopecurus myosuroides, 312 h, dose 1,000 g/ha, evaluated after 13 days, 100=total damage, 0=no damage
Procedure, shortened: as §1

[3] = system: Echinochloa crus-galli (ECHCG); assay: as above; settings: Echinochloa crus-galli, 312 h, dose 1,000 g/ha, evaluated after 13 days, 100=total damage, 0=no damage
Procedure, shortened: as §1

Setaria faberi (SETFA) [4] = assay: as above; settings: Setaria faberi, 312 h, dose 1,000 g/ha, evaluated after 13 days, 100=total damage, 0=no damage
Procedure, shortened: as §1

[5] = system: Amaranthus retoflexus (AMARE); assay: as above; settings: Amaranthus retroflexus, 312 h, dose 1,000 g/ha, evaluated after 13 days, 100=total damage, 0=no damage
Procedure, shortened: as §1

[6] = system: Ipomea hederaceae (IPOHE); assay: as above; settings: Ipomoea hederacea, 312 h, dose 1,000 g/ha, evaluated after 13 days, 100=total damage, 0=no damage
Procedure, shortened: as §1

Solanum nigrum (SOLNI) [7] = assay: Pre-emergence biological efficacy (percentage damage); settings: Solanum nigrum, 312 h, dose 1,000 g/ha, evaluated after 13 days, 100=total damage, 0=no damage
Procedure, shortened: (§2)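 Seeds were sown in standard soil in pots and, one day later, sprayed with test compound at 250 or 1000 g/ha in acetone/water (50:50) with 0.5% Tween 20. Plants grew in a glasshouse at 24/16 °C day/night, 14 h light, 65% humidity; damage was scored after 13 days (0 = none, 100 = total).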

[8] = system: Alopecurus myosuroides (ALOMY); assay: as above; settings: Alopecurus myosuroides, 312 h, dose 1,000 g/ha, evaluated after 13 days, 100=total damage, 0=no damage
Procedure, shortened: as §2

[9] = system: Echinochloa crus-galli (ECHCG); assay: as above; settings: Echinochloa crus-galli, 312 h, dose 1,000 g/ha, evaluated after 13 days, 100=total damage, 0=no damage
Procedure, shortened: as §2

Setaria faberi (SETFA) [10] = assay: as above; settings: Setaria faberi, 312 h, dose 1,000 g/ha, evaluated after 13 days, 100=total damage, 0=no damage
Procedure, shortened: as §2

[11] = system: Amaranthus retoflexus (AMARE); assay: as above; settings: Amaranthus retroflexus, 312 h, dose 1,000 g/ha, evaluated after 13 days, 100=total damage, 0=no damage
Procedure, shortened: as §2

[12] = system: Ipomea hederaceae (IPOHE); assay: as above; settings: Ipomoea hederacea, 312 h, dose 1,000 g/ha, evaluated after 13 days, 100=total damage, 0=no damage
Procedure, shortened: as §2

## COC(=O)c1nc(-c2ccc(Cl)c(OC)c2F)nc(N)c1C(C)=O [Compound 27-53, 4-Amino-2-(4-chloro-2-fluoro-3-methoxy-phenyl)-6-methoxycarbonyl-5-methylcarbonyl-pyrimidine]
Solanum nigrum (SOLNI) [1]
  pest or weed control at 1000 g/ha: 90%
[2]
  pest or weed control at 1000 g/ha: 30%
[3]
  pest or weed control at 1000 g/ha: 30%
Setaria faberi (SETFA) [4]
  pest or weed control at 1000 g/ha: 40%
[5]
  pest or weed control at 1000 g/ha: 100%
[6]
  pest or weed control at 1000 g/ha: 60%
Solanum nigrum (SOLNI) [7]
  pest or weed control at 1000 g/ha: 100%
[8]
  pest or weed control at 1000 g/ha: 20%
[9]
  pest or weed control at 1000 g/ha: 20%
Setaria faberi (SETFA) [10]
  pest or weed control at 1000 g/ha: 10%
[11]
  pest or weed control at 1000 g/ha: 90%
[12]
  pest or weed control at 1000 g/ha: 100%

## C=Cc1c(N)nc(-c2ccc(Cl)c(OC)c2F)nc1C(=O)OC [Compound 27-61, 4-Amino-2-(4-chloro-2-fluoro-3-methoxyphenyl)-5-ethenyl-6-methoxycarbonyl-pyrimidine]
Solanum nigrum (SOLNI) [1]
  pest or weed control at 1000 g/ha: 80%
[2]
  pest or weed control at 1000 g/ha: 90%
[3]
  pest or weed control at 1000 g/ha: 90%
Setaria faberi (SETFA) [4]
  pest or weed control at 1000 g/ha: 100%
[5]
  pest or weed control at 1000 g/ha: 100%
[6]
  pest or weed control at 1000 g/ha: 80%
Solanum nigrum (SOLNI) [7]
  pest or weed control at 1000 g/ha: 100%
[8]
  pest or weed control at 1000 g/ha: 90%
[9]
  pest or weed control at 1000 g/ha: 90%
Setaria faberi (SETFA) [10]
  pest or weed control at 1000 g/ha: 90%
[11]
  pest or weed control at 1000 g/ha: 100%
[12]
  pest or weed control at 1000 g/ha: 90%

## C=C(C)c1c(N)nc(-c2ccc(Cl)c(OC)c2F)nc1C(=O)OC [Compound 27-63, 4-Amino-2-(4-chloro-2-fluoro-3-methoxyphenyl)-6-methoxycarbonyl-5-(prop-1-en-2-yl)-pyrimidine]
Solanum nigrum (SOLNI) [1]
  pest or weed control at 1000 g/ha: 90%
[2]
  pest or weed control at 1000 g/ha: 60%
[3]
  pest or weed control at 1000 g/ha: 70%
Setaria faberi (SETFA) [4]
  pest or weed control at 1000 g/ha: 90%
[5]
  pest or weed control at 1000 g/ha: 100%
[6]
  pest or weed control at 1000 g/ha: 90%
Solanum nigrum (SOLNI) [7]
  pest or weed control at 1000 g/ha: 100%
[8]
  pest or weed control at 1000 g/ha: 50%
[9]
  pest or weed control at 1000 g/ha: 80%
Setaria faberi (SETFA) [10]
  pest or weed control at 1000 g/ha: 50%
[11]
  pest or weed control at 1000 g/ha: 100%
[12]
  pest or weed control at 1000 g/ha: 100%

## C=C(OCC)c1c(N)nc(-c2ccc(Cl)c(OC)c2F)nc1C(=O)OC [Compound 27-67]
Solanum nigrum (SOLNI) [1]
  pest or weed control at 1000 g/ha: 80%
[2]
  pest or weed control at 1000 g/ha: 0%
[3]
  pest or weed control at 1000 g/ha: 10%
Setaria faberi (SETFA) [4]
  pest or weed control at 1000 g/ha: 10%
[5]
  pest or weed control at 1000 g/ha: 40%
[6]
  pest or weed control at 1000 g/ha: 60%
Solanum nigrum (SOLNI) [7]
  pest or weed control at 1000 g/ha: 100%
[8]
  pest or weed control at 1000 g/ha: 20%
[9]
  pest or weed control at 1000 g/ha: 20%
Setaria faberi (SETFA) [10]
  pest or weed control at 1000 g/ha: 10%
[11]
  pest or weed control at 1000 g/ha: 30%
[12]
  pest or weed control at 1000 g/ha: 40%

## COC(=O)c1nc(-c2ccc(Cl)c(OC)c2F)nc(N)c1C=C(C)C [Compound 27-69, 4-Amino-2-(4-chloro-2-fluoro-3-methoxyphenyl)-6-methoxycarbonyl-5-(2-methylprop-1-enyl)-pyrimidine]
Solanum nigrum (SOLNI) [1]
  pest or weed control at 1000 g/ha: 80%
[2]
  pest or weed control at 1000 g/ha: 40%
[3]
  pest or weed control at 1000 g/ha: 10%
Setaria faberi (SETFA) [4]
  pest or weed control at 1000 g/ha: 40%
[5]
  pest or weed control at 1000 g/ha: 90%
[6]
  pest or weed control at 1000 g/ha: 40%
Solanum nigrum (SOLNI) [7]
  pest or weed control at 1000 g/ha: 100%
[8]
  pest or weed control at 1000 g/ha: 40%
[9]
  pest or weed control at 1000 g/ha: 30%
Setaria faberi (SETFA) [10]
  pest or weed control at 1000 g/ha: 60%
[11]
  pest or weed control at 1000 g/ha: 100%
[12]
  pest or weed control at 1000 g/ha: 30%

## C=Cc1c(N)nc(-c2cc(F)c(Cl)c(F)c2)nc1C(=O)OC [Compound 30-61, 4-Amino-2-(4-chloro-3,5-difluorophenyl)-5-ethenyl-6-methoxycarbonyl-pyrimidine]
Solanum nigrum (SOLNI) [1]
  pest or weed control at 1000 g/ha: 80%
[2]
  pest or weed control at 1000 g/ha: 0%
[3]
  pest or weed control at 1000 g/ha: 0%
Setaria faberi (SETFA) [4]
  pest or weed control at 1000 g/ha: 0%
[5]
  pest or weed control at 1000 g/ha: 10%
[6]
  pest or weed control at 1000 g/ha: 10%
Solanum nigrum (SOLNI) [7]
  pest or weed control at 1000 g/ha: 20%
[8]
  pest or weed control at 1000 g/ha: 0%
[9]
  pest or weed control at 1000 g/ha: 0%
Setaria faberi (SETFA) [10]
  pest or weed control at 1000 g/ha: 0%
[11]
  pest or weed control at 1000 g/ha: 0%
[12]
  pest or weed control at 1000 g/ha: 0%
